Results from patent publication US11116774B2, “Modulators of toll-like receptors for the treatment of HIV” (Gilead Sciences, Inc., priority 2014, dated 2021).
Where “and” joins values, the source holds several entries; their conditions need not be identical. Identical values can stand only once. Like-named read-outs stand apart in the source and are kept apart here.

Legend:
[1] = system: HIV-1 expression in PBMC cultures from HIV-1 infected donors on cART; experiment: Induced HIV-1 expression in PBMC cultures from HIV-1 infected donors on cART (Example 208); assay type: cell-based, human; settings: for patients whose cultures showed two-fold or higher activation over the DMSO control: 4 to 5 days, with elvitegravir and efavirenz 100 nM each; for fold induction at 0.01 µM / fold induction at 0.1 µM / fold induction at 0.156 µM / fold induction at 1 µM / fold induction at 2.5 µM / fold induction at 10 µM: Human immunodeficiency virus 1, PBMC; for fold induction at 0.01 µM: read-out: Fold HIV-1 Induction, Geometric Mean, 0.01 μM; for fold induction at 0.01 µM / fold induction at 0.156 µM / fold induction at 2.5 µM: donors 152-155; for fold induction at 0.1 µM: read-out: Fold HIV-1 Induction, Geometric Mean, 0.1 μM; for fold induction at 0.1 µM / fold induction at 1 µM: donors 122, 124-128; for fold induction at 0.156 µM: read-out: Fold HIV-1 Induction, Geometric Mean, 0.156 μM; for fold induction at 1 µM: read-out: Fold HIV-1 Induction, Geometric Mean, 1 μM; for fold induction at 2.5 µM: read-out: Fold HIV-1 Induction, Geometric Mean, 2.5 μM; for fold induction at 10 µM: read-out: Fold HIV-1 Induction, Geometric Mean, 10 μM, donors 124-127
Procedure: Isolated PBMCs were treated with various concentrations (0.1, 1, and 10 μM) of the TLR7 modulating compounds (compounds of Example 4 and Example 49) or dimethyl sulfoxide (DMSO) treated (vehicle control) for 4 to 5 days. The cultures were maintained in the presence of antivirals (elvitegravir and efavirenz at 100 nM each) to prevent viral spread and amplification in order to measure initial virus production (latency reversal) created by the TLR7 modulating compounds. At the end of the incubation period cell-free culture supernatants were harvested and HIV-1 RNA levels were quantified by the COBAS® AmpliPrep/COBAS® TaqMan HIV-1 Test, v2.0 (Roche).
Using the method described above in Example 208, HIV-1 expression in PBMC cultures derived from four additional HIV-1 infected donors on cART were tested in the presence of the compounds of Examples 4, 29, 120, 121, 122, 123, 124, resiquimod, and imiquimod.

[2] = system: CD3+CD4+ lymphocytes in PBMC cultures from HIV-1 infected donors; experiment: In vitro lymphocyte subset activation in PBMC cultures, CD69 on CD4+ lymphocytes (Example 207); assay type: cell-based, human; settings: 24 hours; for CD69 Expression on CD3+CD4+ Lymphocytes, Mean Maximum Expression Background Subtracted: mean of donors 120-123; for CD69 Expression on CD3+CD4+ Lymphocytes, Maximum Expression (Actual %) / CD69 Expression on CD3+CD4+ Lymphocytes, Maximum Expression Background Subtracted: per donor, PBMC from HIV-1 infected donors
Procedure: (§1) Total PBMC cultures were treated with various concentrations of the identified TLR7 modulating compounds (Compounds of Example 4 and Example 49) for 24 hours. At the end of the incubation period, total PBMC were harvested and stained with antibodies conjugated to specific fluorophores to delineate human CD4 lymphocytes (CD3+CD4+CD8−) or CD8 lymphocytes (CD3+CD8+CD4-) and co-expressing the early activation marker CD69. Cells were analyzed by flow cytometry and data collected on an LSR FortessaX20 instrument (BD Biosciences).

[3] = system: CD3+CD8+ lymphocytes in PBMC cultures from healthy and HIV-1 infected donors; experiment: In vitro lymphocyte subset activation in PBMC cultures, CD69 on CD8+ lymphocytes (Example 207); assay type: cell-based, human; settings: 24 hours; for CD69 Expression on CD3+CD8+ Lymphocytes, Mean Maximum Expression Background Subtracted: mean of donors 120-123; for CD69 Expression on CD3+CD8+ Lymphocytes, Maximum Expression (Actual %) / CD69 Expression on CD3+CD8+ Lymphocytes, Maximum Expression Background Subtracted: per donor, PBMC cultures
Procedure: as §1

[4] = system: HIV-infected CD4 T cells (HIV-1 clinical isolate HT593); experiment: Killing of HIV-infected CD4 T cells by combination of Example 49 and HIV antibody PGT121 (Example 218); assay type: cell-based, human; settings: 5 days, combined with PGT121, two donors
Procedure: PBMCs from […] (AllCells: Donor IDs A4593, A4596, A4606) were isolated, as described previously. PBMCs were treated with DMSO or with the compound of Example 49 (GS-9620) at 0.1 uM or 1 uM in replicate culture sets of 8 for 5 days. In parallel, total CD4 T cells were isolated from each donors' PBMCs using the EasySep Human CD4+ T cell Enrichment Kit (Stemcell Technologies). CD4 T cells were infected in bulk with the HIV-1 clinical isolate HT593 (NIH AIDS Reagent Program) using 50-100 ng p24/million CD4 T cells by spinfecting at 1200×g for 2 hours. HIV-infected CD4 T cells were incubated for 5 days at 37° C. in RPMI plus 10% FBS with 30 U/mL IL-2 (Invitrogen). After 5 days in culture, HIV-infected CD4 T cells were washed, counted, and added to PBMCs from the autologous donor at a ratio of 20 PBMCs to 1 CD4 T cell (20:1). To each co-culture replicate, HIV antibody PGT121 (Gilead Sciences, Inc.) was added at concentrations from 6.7e-5 nM to 6.7e2 nM. Co-cultures were incubated with or without HIV antibody for 1 day at 37° C.
Co-cultures were collected and stained with live/dead Fixable Aqua Dead Cell Stain (Invitrogen) and PE-Cy7-labeled antibody to CD4 (BD Biosciences). Cells were fixed and permeabilized, as described previously, and stained with PE labeled antibody to HIV Gag protein p24 (Beckman Coulter). FACS was performed on a LSR Fortessa (BD Biosciences) and data analysis was done with FlowJo software (TreeStar). Data was plotted and statistical analysis was done with GraphPad Prism software (GraphPad). Killing of HIV-infected CD4 T cells was calculated as a reduction of CD4+p24+ T cells at each PGT121 concentration relative to cultures without PGT121.

[5] = system: HIV-1BaL; experiment: Antiviral activity on in vitro HIV-1 infected PBMC cultures, Gag p24 ELISA (Example 209); assay type: cell-based; settings: Human immunodeficiency virus 1, 144 h, PHA-stimulated human PBMC infected with HIV-1BaL, six days with IL-2, Gag p24
Procedure: Antiretroviral activity was assessed by testing the TLR7 modulating compounds (Compounds of Example 4 and Example 49) in total human PBMC cultures that were first treated with mitogen (phytohemogglutinin A) for two days prior to infection with HIV-1BaL. Infected cells were cultured in the presence of interleukin-2 and various concentrations of the TLR7 modulating compounds or the nucleoside analog HIV-1 reverse transcriptase inhibitor azidothymidine (AZT, positive control) for six days. At the end of the incubation period, cell-free culture supernatants were harvested and antiviral activity determined by measuring production of HIV-1 Gag p24 by commercially available ELISA kits.

[6] = system: peripheral NK cells (CD3-CD8+ NKG2A+CD16+CD56+); experiment: Peripheral lymphocyte activation, CD69 by flow cytometry: NK cells (Example 206); assay type: in vivo, rhesus macaque
From the text: During the course of treatment with the compound of Example 4 as described in Example 204, peripheral lymphocyte activation was monitored in the groups dosed with the compound of Example 4 or the dosing vehicle of Example 201 (placebo), by measuring the expression of the early activation marker CD69 on various lymphocyte subsets by flow cytometry methodology. This methodology was used to quantify the percentage of immune cell subsets expressing the early activation marker. Standard data acquisition techniques were employed on a flow cytometer and by the use of antibodies conjugated to fluorescent molecules where the antibodies recognize rhesus macaque cell surface proteins on various immune cell subsets. In animals dosed with the compound of Example 4, whole blood samples were collected for each dose at various time points both at pre- and post-administration of compound. Total PBMCs were stained in the whole blood samples using antibodies that were chosen to be reactive to rhesus CD3, CD4, CD8, NKG2A, CD16 and CD56, each conjugated to different fluorescent probes to delineate CD3+CD4+CD8− lymphocytes, CD3+CD4−CD8+ lymphocytes and CD3-CD8+ NKG2A+CD16+ CD56+ NK cells. The flow cytometry data presented herein are from animals treated with the compound of Example 4.

[7] = at least 8 independent donors, read-out: Range EC50
[8] = mean ± SD from at least 8 independent donors, read-out: Mean EC50

Compound	Donors with ≥2-fold HIV-1 Induction ([1]; 0.01 μM, Tables 7-11)	Donors with ≥2-fold HIV-1 Induction ([1]; 0.1 μM, Table 6)	Donors with ≥2-fold HIV-1 Induction ([1]; 0.156 μM, Tables 7-11)	Donors with ≥2-fold HIV-1 Induction ([1]; 1 μM, Table 6)	Donors with ≥2-fold HIV-1 Induction ([1]; 2.5 μM, Tables 7-11)	Donors with ≥2-fold HIV-1 Induction ([1]; 10 μM, Table 6)	fold induction at 0.01 µM ([1]; Tables 7-11)	fold induction at 0.1 µM ([1]; Table 6)	fold induction at 0.156 µM ([1]; Tables 7-11)	fold induction at 1 µM ([1]; Table 6)	fold induction at 2.5 µM ([1]; Tables 7-11)	fold induction at 10 µM ([1]; Table 6)	CD69 Expression on CD3+CD4+ Lymphocytes, Mean Maximum Expression Background Subtracted [2]	CD69 Expression on CD3+CD4+ Lymphocytes, Maximum Expression (Actual %) [2]	CD69 Expression on CD3+CD4+ Lymphocytes, Maximum Expression Background Subtracted [2]	CD69 Expression on CD3+CD8+ Lymphocytes, Mean Maximum Expression Background Subtracted [3]	CD69 Expression on CD3+CD8+ Lymphocytes, Maximum Expression (Actual %) [3]	CD69 Expression on CD3+CD8+ Lymphocytes, Maximum Expression Background Subtracted [3]	EC50 [5, 7]	EC50 [5, 8]	further results
CCCCOc1nc(N)c2c(n1)N(Cc1cccc(CN3CCCC3)c1)CC(=O)N2 [Example 49]	2 of 4	3 of 6	4 of 4	4 of 6	4 of 4	1 of 4	4	2.3	6.7	2.8	9.4	1.4	22%	59% and 39% and 24% and 25%	21% and 20% and 23% and 24%	31%	55% and 43% and 35% and 32%	31% and 29% and 33% and 30%	4 to 691 nM	170 ± 240 nM	patients whose cultures showed two-fold or higher activation over the DMSO control ([1]; 0.1 μM): 4 of 6; patients whose cultures showed two-fold or higher activation over the DMSO control ([1]; 1 μM): 3 of 6; patients whose cultures showed two-fold or higher activation over the DMSO control ([1]; 10 μM): 1 of 4; increase of AUC relative to DMSO controls ([4]; Example 49 0.1 uM): 32% and 52%; increase of maximal killing relative to DMSO controls ([4]; Example 49 0.1 uM): 30% and 38%; increase of AUC relative to DMSO controls ([4]; Example 49 1 uM): 52% and 73%; increase of maximal killing relative to DMSO controls ([4]; Example 49 1 uM): 50% and 48%
CCCCOc1nc(N)c2c(n1)N(Cc1ccc(CN3CCCC3)cc1)CC(=O)N2 [Example 4]	4 of 4	4 of 6	4 of 4	3 of 6	4 of 4	3 of 4	4.3	2	5.3	1.6	4	3.9	22%	57% and 41% and 26% and 24%	19% and 21% and 25% and 24%	32%	60% and 44% and 35% and 32%	36% and 30% (2×) and 33%	0.8 to 81 nM	33 ± 35 nM	mean maximum percent change in CD69 expression on NK cells ([6]; dose 0.1 mg/kg, any time point (rise by 24 to 72 hours post-dose), pre-dose range 89-95%): 6.5%; mean maximum percent change in CD69 expression on NK cells ([6]; dose 0.2 mg/kg, pre-dose range 83-95%): 9.5%; mean maximum percent change in CD69 expression on NK cells ([6]; first dose of 0.3 mg/kg, pre-dose range 84-95%): 8.3%; mean maximum percent change in CD69 expression on NK cells ([6]; second dose of 0.3 mg/kg, pre-dose range 82-97%): 8.7%
